Assay results from patent publication US20140329863A1 (priority 2011, published 2014).
Read-outs that look alike come from different tables or passages of the source.

Experiments:
[1] = test system: PrP^Sc in dividing ScN2a-c13 cells; settings: dividing ScN2a-c13 cells; for EC50: read-out: EC50 (ELISA), reduction of PrP^Sc load
[2] = test system: PrP^Sc in nondividing ScN2a-cl3 cells; format: cell-based, mouse; settings: read-out: Non-Dividing ELISA EC50 (μM) Mean (n = 3); ScN2a-c13 non-dividing cells; mean n = 3
N2a-cl3 cells = assay: cells; settings: Mus musculus, N2a-cl3, read-out: Dividing Calcein EC50 (μM) Mean (n = 3)
[3] = test system: PrP^Sc in dividing ScN2a-cl3 cells; format: cell-based, mouse; set-up: Dividing ELISA pEC50 (μM) 1st Expt. / Dividing ELISA pEC50 (μM) 2nd Expt. / Dividing ELISA pEC50 (μM) 3rd Expt. / Dividing ELISA pEC50 (μM) Mean: unit not given here; settings: ScN2a-cl3 dividing cells
PrP^C in T98G cells = format: cell-based, human
T98G cells = assay: cells; format: cell-based, human; settings: calcein, T98G cells
PrP^C in IMR32 cells = format: cell-based, human
IMR32 cells = format: cell-based, human
[4] = read-out: Dividing ELISA EC50 (μM) 1st Expt., 1st determination
[5] = read-out: Dividing ELISA EC50 (μM) 2nd Expt., 2nd determination
[6] = read-out: Dividing ELISA EC50 (μM) 3rd Expt., 3rd determination
[7] = read-out: Dividing ELISA EC50 (μM) Mean, mean of three determinations

| Compound | antiprion activity (in words) [1] | EC50 [2] [µM] | melting point [°C] | EC50 (N2a-cl3 cells) [µM] | Dividing ELISA pEC50 (μM) 1st Expt. ([3]; 1st determination) | Dividing ELISA pEC50 (μM) 2nd Expt. ([3]; 2nd determination) | Dividing ELISA pEC50 (μM) 3rd Expt. ([3]; 3rd determination) | EC50 [3, 4] [µM] | EC50 [3, 5] [µM] | EC50 [3, 6] [µM] | EC50 [3, 7] [µM] | % Inhibition: SPC (T98G) (PrP^C in T98G cells) | % Inhibition: Calcein (T98G) (T98G cells) [%] | % Inhibition: SPC (IMR32) (PrP^C in IMR32 cells) | % Inhibition: Calcein (IMR32) (IMR32 cells) [%] | EC50 [1] [µM] | Dividing ELISA pEC50 (μM) Mean ([3]; mean of three determinations) |
| --- | --- | --- | --- | --- | --- | --- | --- | --- | --- | --- | --- | --- | --- | --- | --- | --- | --- |
| Cc1csc(Nc2cc3ccccc3cn2)n1 [compound 36, Isoquinolin-3-yl-(4-methylthiazol-2-yl)-amine] | inactive | > 32 | 212 to 215 | > 32 | >4.5 | >4.5 | >4.5 | > 32 | > 32 | > 32 | > 32 |  |  |  |  |  |  |
| COc1ccc(S(=O)(=O)Nc2cc(C)ccc2C)cc1 [IND-0007902] |  |  |  |  |  |  |  |  |  |  |  | MW: 291.4 % Inhibition: SPC (IMR32): 38 Calcein: 36 SPC (T98G): 51 Calcein: 19 | 19 | MW: 291.4 % Inhibition: SPC (IMR32): 38 Calcein: 36 SPC (T98G): 51 Calcein: 19 | 36 |  |  |
| COc1ccc(C(NC(C)=O)c2ccc3cccnc3c2O)cc1 (stereo not shown) [IND-0058521] |  |  |  |  |  |  |  |  |  |  |  | MW: 322.4 % Inhibition: SPC (IMR32): 56 Calcein: 17 SPC (T98G): 49 Calcein: 3 | 3 | MW: 322.4 % Inhibition: SPC (IMR32): 56 Calcein: 17 SPC (T98G): 49 Calcein: 3 | 17 |  |  |
| N#Cc1c(NC(=O)CCc2cccs2)sc2c1CCCC2 [IND-0082865] |  |  |  |  |  |  |  |  |  |  |  | MW: 316.4 % Inhibition: SPC (IMR32): 60 Calcein: 37 SPC (T98G): 51 Calcein: 17 | 17 | MW: 316.4 % Inhibition: SPC (IMR32): 60 Calcein: 37 SPC (T98G): 51 Calcein: 17 | 37 |  |  |
| CC(C)c1ccc(NC(=O)Nc2cnccn2)cc1 [IND-0088907] |  |  |  |  |  |  |  |  |  |  |  | MW: 256.3 % Inhibition: SPC (IMR32): 4 Calcein: 9 SPC (T98G): 46 Calcein: 27 | 27 | MW: 256.3 % Inhibition: SPC (IMR32): 4 Calcein: 9 SPC (T98G): 46 Calcein: 27 | 9 |  |  |
| CNc1nc(-c2ccc(OC)c(OC)c2)cs1 [compound 5, 4-(3,4-dimethoxyphenyl)-N-methyl-1,3-thiazol-2-amine] | without significant activity | > 32 | 120 to 123 | > 32 | >4.5 | >4.5 | >4.5 | > 32 | > 32 | > 32 | > 32 |  |  |  |  |  |  |
| COc1ccccc1C(=O)N1CCN(c2cccc(Cl)c2)CC1 [IND-0021750] |  |  |  |  |  |  |  |  |  |  |  | MW: 330.8 % Inhibition: SPC (IMR32): 44 Calcein: 25 SPC (T98G): 52 Calcein: 21 | 21 | MW: 330.8 % Inhibition: SPC (IMR32): 44 Calcein: 25 SPC (T98G): 52 Calcein: 21 | 25 |  |  |
| Cc1cc(C)c(S(=O)(=O)NCc2ccccc2)c(C)c1 [IND-0014135] |  |  |  |  |  |  |  |  |  |  |  | MW: 289.4 % Inhibition SPC (IMR32): 55 Calcein: 4 SPC (T98G): 39 Calcein: 9 | 9 | MW: 289.4 % Inhibition SPC (IMR32): 55 Calcein: 4 SPC (T98G): 39 Calcein: 9 | 4 |  |  |
| Cc1ccc(Nc2nc(C)cs2)nc1 [compound 29, (5-Methylpyridin-2-yl)-(4-methylthiazol-2-yl)-amine] | inactive | > 32 | 212 to 214 | > 32 | >4.5 | >4.5 | >4.5 | > 32 | > 32 | > 32 | > 32 |  |  |  |  |  |  |
| FC(F)(F)Oc1ccc(-c2csc(Nc3cc4ccccc4cn3)n2)cc1 [compound 31, Isoquinolin-3-yl-[4-(4-trifluoromethoxyphenyl)-thiazol-2-yl]-amine] | inactive | > 32 | 269 to 271 | > 32 | >4.5 | >4.5 | >4.5 | > 32 | > 32 | > 32 | > 32 |  |  |  |  |  |  |
| COc1ccc(-c2csc(Nc3cccnc3)n2)cc1OC [compound 7, [4-(3,4-dimethoxyphenyl)-thiazol-2-yl]pyridin-3-yl-amine] |  | > 32 | 251 to 254 | > 32 | 5.85 | 5.94 | 5.96 | 1.41 | 1.16 | 1.1 | 1.22 |  |  |  |  | 1.22 | 5.92 |
| Cc1cccc(N2CCN(C(=O)c3ccc4c(c3)OCO4)CC2)c1C [IND-0023025] |  |  |  |  |  |  |  |  |  |  |  | MW: 338.4 % Inhibition: SPC (IMR32): 34 Calcein: 15 SPC (T98G): 34 Calcein: 26 | 26 | MW: 338.4 % Inhibition: SPC (IMR32): 34 Calcein: 15 SPC (T98G): 34 Calcein: 26 | 15 |  |  |
| CC(=O)N1CCc2c([nH]c3ccccc23)C1c1ccc(Cl)cc1 (stereo not shown) [IND-0017998] |  |  |  |  |  |  |  |  |  |  |  | MW: 324.8 % Inhibition: SPC (IMR32): 73 Calcein: 7 SPC (T98G): 74 Calcein: −19 | −19 | MW: 324.8 % Inhibition: SPC (IMR32): 73 Calcein: 7 SPC (T98G): 74 Calcein: −19 | 7 |  |  |
| CC(C)(C)NCC(O)COc1ccc(C23CC4CC(CC(C4)C2)C3)cc1 (stereo not shown) [IND-0003070] |  |  |  |  |  |  |  |  |  |  |  | MW: 285.4 % Inhibition: SPC (IMR32): 94 Calcein: 34 SPC (T98G): −55 Calcein: −13 | −13 | MW: 285.4 % Inhibition: SPC (IMR32): 94 Calcein: 34 SPC (T98G): −55 Calcein: −13 | 34 |  |  |
| Cc1nc2sccn2c1-c1csc(Nc2ccc(N(C)C)cc2)n1 [IND-0009688] |  |  |  |  |  |  |  |  |  |  |  | MW: 288.8 % Inhibition: SPC (IMR32): 66 Calcein: 38 SPC (T98G): 31 Calcein: 8 | 8 | MW: 288.8 % Inhibition: SPC (IMR32): 66 Calcein: 38 SPC (T98G): 31 Calcein: 8 | 38 |  |  |
| COc1ccc(Nc2nc(-c3cc(-c4ccccc4)no3)cs2)nc1 [compound 40, (5-Methoxypyridin-2-yl)-[4-(3-phenylisoxazol-5-yl)-thiazol-2-yl]-amine] |  | > 32 | 203 to 205 | > 32 | 6.40 | 6.96 | 6.74 | 0.395 | 0.11 | 0.183 | 0.229 |  |  |  |  | 0.23 | 6.70 |
| COc1ccc(NC(=O)Nc2ccc(SC(F)(F)F)cc2)cc1 [IND-0002925] |  |  |  |  |  |  |  |  |  |  |  | MW: 342.3 % Inhibition: SPC (IMR32): 22 Calcein: 13 SPC (T98G): 62 Calcein: −10 | −10 | MW: 342.3 % Inhibition: SPC (IMR32): 22 Calcein: 13 SPC (T98G): 62 Calcein: −10 | 13 |  |  |
| COc1ccc(-c2csc(Nc3cc4ccccc4cn3)n2)cc1 [compound 30, Isoquinolin-3-yl-[4-(4-methoxyphenyl)-thiazol-2-yl]-amine] |  | > 32 | 224 to 228 | > 32 | 6.65 | 6.41 | 6.38 | 0.226 | 0.385 | 0.414 | 0.342 |  |  |  |  | 0.34 | 6.48 |
| COc1ccnc(Nc2nc(-c3cc(-c4ccccc4)no3)cs2)c1 [compound 41, (4-Methoxypyridin-2-yl)-[4-(3-phenylisoxazol-5-yl)-thiazol-2-yl]-amine] |  | > 32 | 177 to 179 | > 32 | 6.43 | 6.78 | 6.66 | 0.369 | 0.166 | 0.219 | 0.251 |  |  |  |  | 0.25 | 6.62 |
| FC(F)(F)c1csc(Nc2cc3ccccc3cn2)n1 [compound 37, Isoquinolin-3-yl-(4-trifluoromethylthiazol-2-yl)-amine] | less potent | > 32 | 200 to 203 | > 32 | 5.05 | 5.14 | 5.01 | 9 | 7.26 | 9.71 | 8.66 |  |  |  |  |  | 5.07 |
